Where two headings read alike, the source gives them in different places.
Columns and labels:
[1] = target: T1, MOR (Homo sapiens, UniProt P35372); experiment: cell-based; conditions: EC20 morphine agonism of MOR; for EC50: RC50, cAMP; for Max. Response: cAMP
[2] = target: T1, MOR; experiment: cell-based; conditions: EC20 Oxycodone agonism of MOR; for EC50: RC50, β-arrestin; for Max. Response: β-arrestin
[3] = target: T1, MOR; assay type: cell-based; conditions: cAMP; EC20 EM2 agonism of MOR
[4] = target: T2, mu opioid receptor subtype OPRM1 (Homo sapiens, UniProt P35372); experiment: cell-based
[5] = target: T1, MOR; assay type: cell-based
[6] = target: T1, MOR; assay type: cell-based; conditions: β-arrestin; EC20 EM2 agonism of MOR
[7] = target: T1, MOR; experiment: cell-based; conditions: EC20 morphine agonism of MOR; for EC50: RC50, β-arrestin; for Max. Response: β-arrestin
[8] = target: T2, mu opioid receptor subtype OPRM1; experiment: β-arrestin recruitment assay, antagonist format; assay type: cell-based; conditions: Table 18
Experimental: Beta-Arrestin Pathway: The PathHunter β-arrestin assay monitors the activation of a GPCR in a homogenous, non-imaging assay format using a technology developed by DiscoveRx called Enzyme Fragment Complementation (EFC) with beta-galactosidase (β-Gal) as the functional reporter. […] EA is fused to β-Arrestin and ED is fused to the GPCR of interest. When the GPCR is activated and β-arrestin is recruited to the receptor, ED and EA complementation occurs, restoring β-gal activity, which is measured using chemiluminescent PathHunter Detection Reagents.
Similar results were obtained when agonist and antagonist activity were assayed using cAMP signaling as the readout.

[9] = target: T3, mu opioid receptor (MOR) (Homo sapiens, UniProt P35372); experiment: Hit Hunter cAMP signaling assay (adenylyl cyclase inhibition), PAM mode with EC20 endomorphin-1; assay type: cell-based; conditions: for allosteric activity for cAMP signaling: EC20 endomorphin-1 concentration of 0.45 nM; for Max. Response: cAMP
[10] = target: T1, MOR; experiment: cell-based; conditions: EC20 Oxycodone agonism of MOR; for EC50: RC50, cAMP; for Max. Response: cAMP
[11] = target: T3, mu opioid receptor (MOR); experiment: PathHunter β-arrestin recruitment assay, PAM mode with EC20 endomorphin-1; assay type: cell-based; conditions: for allosteric activity for β-arrestin recruitment: EC20 endomorphin-1 concentration of 4.5 nM
How it was run: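 Enzyme fragment complementation read-out: β-gal ED fragment fused to receptor, EA fused to β-arrestin, recruitment restoring β-gal activity detected by chemiluminescence. EC50 and percent maximal response derived for each compound.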

[12] = target: T1, MOR; assay type: cell-based; remark: listed apart in the source
[13] = target: T2, mu opioid receptor subtype OPRM1
[14] = target: OPRM1 receptor (Homo sapiens, UniProt P35372)
[15] = tested on: Sprague-Dawley rats; experiment: Respiratory depression: blood oxygen saturation by pulse oximetry; assay type: in vivo; conditions: subcutaneous; morphine 10 mg/kg, compound 9 15, 30, 60 mg/kg; 90 minutes
Experimental: Respiratory depression is a significant side effect associated with opioid treatment of acute and chronic pain. Drug-related overdose deaths are often a function of the respiratory depression which occurs with opioid use. Efforts to generate analgesics that dissociate pain relief from side effects are critical to the advancement of public health. […] […].
Blood oxygen saturation was assessed in awake rats with the MouseOx oximeter system (Starr Life Sciences, Holliston, Mass.). Up to 5 samples were measured every 5 minutes for 15 minutes prior to dosing and 90 minutes after dosing. Each animal was habituated to the device over several days prior to the study.

[16] = tested on: Sprague-Dawley rats; experiment: Gastrointestinal transit of charcoal bolus and stomach contents; conditions: morphine 10 mg/kg, compound 9 15, 30, 60 mg/kg
[17] = target: T4, PK-tagged kappa opioid receptors (U20S-KOR1) (Homo sapiens, UniProt P41145); experiment: β-arrestin recruitment in U20S PathHunter cells, PAM mode with EC20 Dynorphin A; assay type: cell-based; conditions: EC20 (0.8 nM) Dynorphin A; concentrations up to 25 μM
T4 construct: host or cells: U20S Path Hunter cells

[18] = target: T5, PK-tagged delta opioid receptors (U20S-DOR1) (Homo sapiens, UniProt P41143); experiment: β-arrestin recruitment in U20S PathHunter cells, PAM mode with EC20 DADLE; assay type: cell-based; conditions: EC20 (0.8 nM) DADLE; concentrations up to 25 μM
T5 construct: host or cells: U20S Path Hunter cells

[19] = RC50, cAMP, EC20 EM-1 agonism of MOR
[20] = cAMP EC50, adenylyl cyclase inhibition
[21] = maximal response for adenylyl cyclase inhibition
[22] = maximal response for β-arrestin recruitment
[23] = β-arrestin recruitment, read-out: β-arr. EC50
[24] = β-arrestin, EC20 EM-1 agonism of MOR
[25] = β-arrestin, EC20 EM-1 agonism of MOR, read-out: RC50 (the source's name)
[26] = adenylyl cyclase inhibition, read-out: cAMP EC50

T1 sequence (P35372 whole entry): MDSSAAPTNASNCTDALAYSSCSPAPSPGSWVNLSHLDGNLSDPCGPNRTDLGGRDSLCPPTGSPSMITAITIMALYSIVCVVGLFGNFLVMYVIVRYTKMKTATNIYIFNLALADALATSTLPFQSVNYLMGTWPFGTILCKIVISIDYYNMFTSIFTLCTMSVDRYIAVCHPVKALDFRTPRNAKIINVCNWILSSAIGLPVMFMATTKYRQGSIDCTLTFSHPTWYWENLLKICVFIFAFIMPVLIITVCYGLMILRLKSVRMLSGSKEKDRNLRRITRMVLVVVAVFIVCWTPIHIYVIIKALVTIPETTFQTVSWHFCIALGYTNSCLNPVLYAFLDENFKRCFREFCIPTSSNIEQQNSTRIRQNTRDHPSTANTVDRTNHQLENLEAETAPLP
T2 sequence (P35372 whole entry): as above
T3 sequence (P35372 whole entry): as above
Sequence of OPRM1 receptor (P35372 whole entry): as above

COc1ccc(C2CCCCN2S(=O)(=O)c2ccc(Cl)cc2)cc1Br (single isomer, unassigned) [compound 6]
EC50 [1]: 2960 nM
Max. Response [1]: 93
EC50 [2]: 4830 nM
Max. Response [2]: 384
Max. Response [3]: 91
EC50 [4]: > 25000 nM
shift in the potency of oxycodone ([5]; adenylyl cyclase inhibition): concentration-dependent and saturable leftward shifts
factor of increase of the affinity (α) of oxycodone ([5]; cAMP): 4
factor of increase of the efficacy (β) of oxycodone ([5]; cAMP): 4
effective potency for PAM effect ([5]; cAMP signal, oxycodone): 234 nM
Max. Response [6]: 117
EC50 [7]: 8250 nM
Max. Response [7]: 421
IC50 [8]: > 25 µM
allosteric activity for cAMP signaling [9]: moderate positive allosteric effect
EC50 [9, 19]: 500 nM
EC50 [9, 20]: < 700 nM
Max. Response ([9]; EC20 EM-1 agonism of MOR): 93
cAMP Max. Resp. [9, 21]: F (F represents a maximal response of > 60%)
EC50 [10]: 320 nM
Max. Response [10]: 90
allosteric activity for β-arrestin recruitment [11]: moderate positive allosteric effect
β-arr Max. Resp. [11, 22]: F (F represents a maximal response of > 60%)
EC50 [11, 23]: 700 to 2100 nM
Max. Response [11, 24]: 173
EC50 [11, 25]: 2520 nM
factor of increase of the affinity (α) of oxycodone ([12]; β-arrestin): 2
factor of increase of the efficacy (β) of oxycodone ([12]; β-arrestin): 80
shift in the potency of oxycodone ([12]; β-arrestin recruitment): concentration-dependent and saturable leftward shifts

COc1ccc2c3c1O[C@H]1C(=O)CC[C@@]4(O)[C@@H](C2)N(C)CC[C@]314 [oxycodone]
% Max. Resp., β-arrestin [13]: 102.03%
% Max. Resp., cAMP [14]: 100.62%

CN1CC[C@]23c4c5ccc(O)c4O[C@H]2[C@@H](O)C=C[C@H]3[C@H]1C5 [morphine, reference compound]
oxygen saturation / respiratory depression [15]: significant reduction in oxygen saturation
stomach weight ([16]; 20 minutes after charcoal): increased
GI transit ([16]; subcutaneous 1 hour before charcoal): significantly decreased

COc1ccc(C2CC(C(F)(F)F)CN2S(=O)(=O)c2ccc(Cl)cc2)cc1Br (single isomer, unassigned) [Compound 109]
IC50 [8]: > 25 µM
allosteric activity for cAMP signaling [9]: moderate positive allosteric effect
EC50 [9, 26]: < 700 nM
cAMP Max. Resp. [9, 21]: E (E represents a maximal response of 40-60%)
allosteric activity for β-arrestin recruitment [11]: moderate positive allosteric effect
β-arr Max. Resp. [11, 22]: F (F represents a maximal response of > 60%)
EC50 [11, 23]: > 2100 nM

Fc1ccc(Cl)cc1CN1CCCCC1c1cccc(C(F)(F)F)n1 (centres unmarked) [compound 2]
EC50 [1]: > 25000 nM
Max. Response [1]: 26
EC50 [2]: 13600 nM
Max. Response [2]: 126
Max. Response [3]: 83
Max. Response [6]: 97
EC50 [7]: 9590 nM
Max. Response [7]: 156
allosteric activity for cAMP signaling [9]: high positive allosteric activity
EC50 [9, 19]: 570 nM
EC50 ([9]; cAMP EC50 (nM), adenylyl cyclase inhibition, Table 3): 170 nM
EC50 [9, 20]: < 700 nM
Max. Response ([9]; EC20 EM-1 agonism of MOR): 81
cAMP Max. Resp. [9, 21]: F (F represents a maximal response of > 60%)
cAMP Max Resp. ([9]; maximal response for adenylyl cyclase inhibition, Table 3): 85
EC50 [10]: > 25000 nM
Max. Response [10]: 5
allosteric activity for β-arrestin recruitment [11]: high positive allosteric activity
signaling preference β-arrestin vs cAMP ([11]; comparison of β-arrestin and cAMP assays): roughly equivalent signaling for β-arrestin and cAMP
β-arr Max. Resp. [11, 22]: F (F represents a maximal response of > 60%)
β-arr. Max Resp. ([11]; maximal response for β-arrestin recruitment, Table 3): 72
EC50 ([11]; β-arrestin recruitment, Table 3, read-out: β-arr. EC50): 155 nM
EC50 [11, 23]: < 700 nM
Max. Response [11, 24]: 143
EC50 [11, 25]: 360 nM

O=S(=O)(c1ccc(Cl)cc1)N1CCCCC1c1ccc(F)c(Br)c1 (racemic) [compound 60]
positive allosteric effect on KOR signaling [17]: no significant positive allosteric effect
cAMP Max Resp. ([9]; adenylyl cyclase inhibition, activity switching by MOR PAMs): D (D represents a maximal response of < 40%)
EC50 ([9]; adenylyl cyclase inhibition, activity switching by MOR PAMs, read-out: cAMP EC50): > 2100 nM
EC50 [9, 26]: < 700 nM
cAMP Max. Resp. [9, 21]: E (E represents a maximal response of 40-60%)
positive allosteric effect on DOR signaling [18]: no significant positive allosteric effect
β-arr Max. Resp. [11, 22]: F (F represents a maximal response of > 60%)
β-arrestin Max Response ([11]; β-arrestin recruitment, activity switching by MOR PAMs): F (F represents a maximal response of >60%)
EC50 ([11]; β-arrestin recruitment, activity switching by MOR PAMs, read-out: β-arrestin EC50): > 2100 nM
EC50 [11, 23]: < 700 nM

COc1ccc(C2N(S(=O)(=O)c3ccc(Cl)cc3)CCC2(F)F)cc1Br (single isomer, unassigned) [Compound 110]
IC50 [8]: > 25 µM
allosteric activity for cAMP signaling [9]: moderate positive allosteric effect
EC50 [9, 26]: > 2100 nM
cAMP Max. Resp. [9, 21]: F (F represents a maximal response of > 60%)
allosteric activity for β-arrestin recruitment [11]: moderate positive allosteric effect
β-arr Max. Resp. [11, 22]: F (F represents a maximal response of > 60%)
EC50 [11, 23]: > 2100 nM
